Laboratory results from patent US7851436B2, “Inhibition of migration and induction of cell death by the type II collagen amino propeptides” (Washington University, priority 2007, dated 2010).
“Also recorded” adds a separate entry of the source.

How the values were obtained:
HUVEC cells [1] = experiment: Tube formation assay; type: cell-based, human
Method: Tube Formation Assay. The tube formation assay using HUVEC cells was performed as described with some modification. Briefly, a suspension of 7.5×10^4 cells/well in complete medium was seeded into a Matrigel-coated 24-well plate in the presence of recombinant PIIBNP or GST (0-10 μM). The formation of tubes was evaluated using light microscopy and quantification was performed using a Q Capture Pro imaging software. Branch points per field were counted from three fields for each treatment.

HUVEC cells [2] = experiment: HUVEC cell death; type: cell-based, human
Method: FIG. 6 depicts photographs and graphs showing that PIIBNP inhibits angiogenesis. […] Quantification of tube formation was calculated based on branch points per field of view (FIG. 6C) for each treatment ranging from 0.1 μM to 10 μM of PIIBNP. […] GST (▴) and PIIANP (●) had no effect on the cells.
As a second test for angiogenesis, we tested the ability of PIIBNP to inhibit outgrowth of endogenous endothelial cells from freshly isolated rat aorta. […] In order to determine whether PIIBNP caused endothelial cell death, the number of HUVEC cells present after incubation with PIIBNP was determined (FIGS. 6E and 8). Tube formation was inhibited by 50% with 0.1 μM PIIBNP, with no cell death. […] Consequently, PIIBNP can inhibit angiogenesis in a cell line and in endogenous endothelial cells mediated by integrins αVβ3 and αVβ5.

MDA-MB231 cells = experiment: Cell survival assay in MDA-MB231 cells; type: cell-based, human
Method: Cell Culture. Human Chondrosarcoma cell line (Ch-1) was isolated from a portion of chondrosarcoma tumor. […] HUVEC cells were a gift from Dr. William Frazier (Washington University) and were cultured in M199 Earle's medium with 10 units/ml of penicillin, 5 μg/ml streptomycin and 0.25 μg/ml Fungizone supplemented with 10% FBS, 0.1 mg/ml L-glutamine, 25 mM Hepes, 16 units/ml of heparin (Sigma) and 0.1 mg/ml endothelial cell mitogen (Biochemical Technologies).
(§1) Detection of Cell Death. Cells were cultured to confluence in a 24-well plate pre-coated with type I collagen, fibronectin (Sigma), and ECM Matrigel (Becton Dickinson). Proteins in serum-free medium were added to the cells. Cells were monitored by light microscopy and images were digitally photographed using a Q capture Retiga 2000R camera. Quantification of cells remaining in the well was performed by washing with PBS for three times, fixing with 4% paraformaldehyde. The cells per field (×400) were counted for three field per well (3 wells per measurement). The mean number and standard deviation (SD) were calculated.

mouse osteoclast cells = experiment: Osteoclast viability (trypan blue exclusion); type: cell-based; settings: 16 hours at 37° C.
Method: (§2) FIG. 10 depicts a graph showing mouse chondrogenic cells (ATDC5), mouse osteoblast cells, and mouse osteoclast cells treated with recombinant GST, PIIBNP or mPIIBNP proteins for 16 hours at 37° C. The cells were trypsinized and cell viability was assayed using a trypan blue exclusion based cell counting. PPIIBNP induced death in osteoclasts that resorb the bone, but not the osteoblasts that form bone.

β1, α4, and α5 integrin = experiment: Cell surface labeling and GST pull-down with immunoblotting (other integrins); type: binding, human; settings: b23: β1 only; b113: β1, α4 and α5
Method: Immunoblotting. Western blotting was performed as described (7). Blots were probed with the following primary antibodies: rabbit anti αV, α2, α3, α5, β1, β3, β5 integrin and goat anti actin (Saint Cruz), chicken anti PIIBNP antiserum, and mouse anti exon 2 antiserum.
Cell Surface labeling and GST Pull-down Assay. Ch-1 cells were incubated with EZ-link Sulfo-NHS-Biotin reagent for 30 mins. according to the product instruction (Sigma). After 3 washes with 0.1 M glycine in PBS, the cells were lysed with a lysis buffer described above. The lysate was incubated with glutathione derivatized agarose beads previously bound with GST, PIIANP, PIIBNP or mPIIBNP for 1 hr. at RT. […] The membrane was washed and incubated with antibodies and then incubated with a secondary antibody coupled to horseradish peroxidase. The antibody complex was visualized by enhanced chemiluminescence.

[3] = test system: mouse chondrogenic cells (ATDC5); experiment: Chondrogenic cell viability (trypan blue exclusion); type: cell-based; settings: 16 hours at 37° C.
Method: as §2

Ch-1 cells = experiment: Detection of cell death in Ch-1 cells; type: cell-based, human; settings: 0.8 μM
Method: Cell Culture. Human Chondrosarcoma cell line (Ch-1) was isolated from a portion of chondrosarcoma tumor. The Ch-1 cell line was maintained in RPMI-1640 supplemented with 10% FBS and at 37° C. in a humidified, 5% CO2 atmosphere. Human chondrocytes were obtained from Dr. Davis Adkisson (ISTO Technologies, St. Louis) or isolated from macroscopically intact tissue obtained from total joint arthroplasty as described (Bassleer et al., 1998). HeLa 229 cells and MDA-MB 231 cell lines were provided by Dr. Kathy Weilbaecher (Washington University) and were cultured in RPMI medium supplemented with 10% FBS. HUVEC cells were a gift from Dr. William Frazier (Washington University) and were cultured in M199 Earle's medium with 10 units/ml of penicillin, 5 μg/ml streptomycin and 0.25 μg/ml Fungizone supplemented with 10% FBS, 0.1 mg/ml L-glutamine, 25 mM Hepes, 16 units/ml of heparin (Sigma) and 0.1 mg/ml endothelial cell mitogen (Biochemical Technologies).
as §1

Substance: PIIBNP: Recombinant human Type IIB procollagen NH2-propeptide (exons 3-8, lacking exon 2), expressed as GST fusion protein
- tube formation inhibited (HUVEC cells [1]; 0.1 μM): 50%
- inhibition of tube formation (HUVEC cells [1]; Matrigel-coated plates, 0-10 μM): able to inhibit the formation of tubes in a dose-dependent manner
- HUVEC cell death (HUVEC cells [2]; 0.1 μM): no cell death
- HUVEC cell death (HUVEC cells [2]; 60 hrs, 37° C., higher concentrations): cell death was induced; also recorded: caused cell death in a concentration-dependent manner
- cell survival (MDA-MB231 cells; MDA cells): 30%
- cell death (MDA-MB231 cells; MDA-MB231 cells, FIG. 4L): > 70%
- induction of osteoclast death (mouse osteoclast cells; listed as PPIIBNP): induced death
- induction of osteoclast death (mouse osteoclast cells; listed as Type IIB propeptide): induced the death
- reaction of integrin antibodies with material pulled out by PIIBNP (β1, α4, and α5 integrin): did not react
- induction of ATDC5 cell death [3]: did not lead to the mouse chondrogenic cell (ATDC5) death
- cell survival (Ch-1 cells): 20-30%
- induction of cell death in Ch-1 cells (Ch-1 cells; serum free medium, 24 hrs, type I collagen, fibronectin or Matrigel coated plates): resulted in cell death in a concentration and time-dependent manner; also recorded: induced cell death
